Data reported in patent publication US20180371256A1, “BENZOCOUMARIN-BASED TWO-PHOTON ABSORBING FLUORESCENT DYE” (POSTECH ACADEMY-INDUSTRY FOUNDATION, priority 2017, published 2018).
“Also recorded” adds a separate entry of the source.

Tests used:
[1] = UV/Vis absorbance spectra of benzocoumarin-based fluorescent dyes (wavelength of maximum absorbance); format: physicochemical; conditions: 10 μM dye in HEPES buffer, PBS buffer, dioxane, ethanol, acetonitrile, dichloromethane, dimethylsulfoxide or toluene (1% DMSO); compared with Compounds 1c and 1g to 1l (FIG. 1)
Source text: (§1) The inventors confirmed absorption characteristics of representative compounds among Compounds 1g to 1k, which are two-photon absorbing near-infrared fluorescent dyes, and Compounds 1a to 1f and 1l to 4g, which are two-photon absorbing fluorescent dyes, of the present invention, and the results are shown in FIG. 1.
Specifically, to confirm the characteristics of UV/Vis absorbance spectra of benzocoumarin-based near-infrared fluorescent dyes and derivatives thereof, the inventors measured UV/Vis absorbance spectra (measured using a HP8453 UV/Vis absorbance spectrophotometer) by charging a quartz cell with a 1-cm path length with 4-(2-hydroxyethyl)-1-piperazineethanesulfonic acid (HEPES) buffer, phosphate-buffered saline (PBS) buffer, dioxane, ethanol, acetonitrile, dichloromethane, dimethylsulfoxide, or a toluene solution (containing 1% DMSO), which contains 10 μM each of Compounds 1a to 4g, and the wavelength of maximum absorbance is shown in FIG. 1.

[2] = Fluorescence spectra of benzocoumarin-based fluorescent dyes; format: physicochemical; conditions: 10 μM dye in HEPES buffer, dioxane, ethanol, acetonitrile, dichloromethane, dimethylsulfoxide or toluene (1% DMSO); compared with Compounds 1c and 1g to 1l (FIG. 2)
Source text: as §1, with “2.” for “1.”
Specifically, to confirm the characteristics of fluorescent spectra of two-photon absorbing near-infrared fluorescent dyes, the inventors measured fluorescence spectra (measured using a photon technical international fluorescence system) by charging a quartz cell with a 1-cm path length with 4-(2-hydroxyethyl)-1-piperazineethanesulfonic acid (HEPES) buffer, […], dioxane, ethanol, acetonitrile, dichloromethane, dimethylsulfoxide, a toluene solution (containing 1% DMSO), which contains 10 μM each of Compounds 1a to 4g, and the wavelength of maximum absorbance is shown in FIG. 2.

mouse kidney tissue = assay: Two-photon fluorescence microscopy imaging of mouse kidney tissue slices treated with dye; design: species or system mouse (Balb/C); conditions: 10 μM
Description: The inventors observed fluorescent changes by two-photon microscopy after mouse tissue was treated with Compound 1g of the present invention, and the result is shown in FIG. 3.
Specifically, to observe a two-photon microscopy image of mouse tissue treated with Compound 1g, kidney tissue of a Balb/C type mouse (6 weeks old) was used, and an experiment was carried out under a light-protected condition (dark room). The mouse kidney tissue was dissected and washed with a PBS buffer solution, and then each organ was frozen over dry-ice for 5 minutes. The frozen organs were crushed with a hammer, and then a tissue slice sample was prepared to a thickness of 16 μm using a cutter (Cryostat machine, Leica, CM3000 model). […] The tissue slice sample was put on a specimen block (Paul Marienfeld GMbH & Co.), and the specimen block was immersed in 4% paraformaldehyde for 10 minutes and washed with a PBS buffer solution, and then the tissue was fixed again using a mount solution (Gel Mount, BIOMEDA). The prepared tissue slice sample was immersed in a PBS buffer solution containing Compound 1g and acedan or IminoPOS at a concentration of 10 μM for 10 minutes, washed with a PBS buffer solution three times, and then fixed with 4% paraformaldehyde, followed by observation of fluorescence. […]

Row | SMILES | wavelengths of maximum absorbance [1] | wavelengths of maximum absorbance (fluorescence spectra, FIG. 2) [2] | quality of two-photon fluorescence image (mouse kidney tissue; depths 25, 125, 175 μm, compared to acedan or IminoPOS (conventional two-photon dyes), FIG. 3c) | signal/noise (S/N) ratio of two-photon tissue image (mouse kidney tissue; two-photon excitation 900 nm, surface layer to middle depth (50 to 150 μm), compared to acedan (800 nm) and IminoPOS (850 nm), FIG. 3b)
1 | CNc1ccc2cc3cc(-c4ccncc4)c(=O)oc3cc2c1 [Compound 1d, 8-(methylamino)-3-(pyridine-4-yl)-2H-benzo[g]chromene-2-one] | did not have a significant difference | did not have a significant difference | – | –
2 | O=c1oc2cc3cc(N4CCCC4)ccc3cc2cc1-c1ccncc1 [Compound 1a, 3-(pyridine-4-yl)-8-(pyrrolidine-1-yl)-2H-benzo[g]chromene-2-one] | did not have a significant difference | did not have a significant difference | – | –
3 | C[n+]1ccc(-c2cc3cc4ccc(N5CCCC5)cc4cc3oc2=O)cc1.[OH-] [Compound 1g, 1-methyl-4-(2-oxo-8-(pyrrolidine-1-yl)-2H-benzo[g]chromene-3-yl)pyridinium trifluoromethanesulfonate] | – | – | superior fluorescence image; also recorded: high-definition and high-contrast image | increased

More lines, main results first:

Row | wavelengths of maximum absorbance [1] | wavelengths of maximum absorbance (fluorescence spectra, FIG. 2) [2] | SMILES | quality of two-photon fluorescence image (mouse kidney tissue; depths 25, 125, 175 μm, compared to acedan or IminoPOS (conventional two-photon dyes), FIG. 3c) | signal/noise (S/N) ratio of two-photon tissue image (mouse kidney tissue; two-photon excitation 900 nm, surface layer to middle depth (50 to 150 μm), compared to acedan (800 nm) and IminoPOS (850 nm), FIG. 3b)
4 | did not have a significant difference | did not have a significant difference | Nc1ccc2cc3cc(-c4ccncc4)c(=O)oc3cc2c1 [Compound 1f, 8-amino-3-(pyridine-4-yl)-2H-benzo[g]chromene-2-one] | – | –
5 | did not have a significant difference | did not have a significant difference | C=CCNc1ccc2cc3cc(-c4ccncc4)c(=O)oc3cc2c1 [Compound 1e, 8-(allylamino)-3-(pyridine-4-yl)-2H-benzo[g]chromene-2-one] | – | –
6 | did not have a significant difference | did not have a significant difference | CN(C)c1ccc2cc3cc(-c4ccncc4)c(=O)oc3cc2c1 [Compound 1b, 8-(dimethylamino)-3-(pyridine-4-yl)-2H-benzo[g]chromene-2-one] | – | –
